In publication PMC2645942 (Journal of medicinal chemistry, 2008):

What was measured:
[1] = molecular target: αβγF77C (α1β2γ2F77C GABAA receptor) (Rattus norvegicus, UniProt P18508+P62813, F115C/INS375LLRMFSFK); test: Radioligand binding, αβγF77C mutant
[2] = molecular target: αD97Cβγ (α1D97Cβ2γ2 GABAA receptor) (Rattus norvegicus, UniProt P18508+P62813, D124C/INS375LLRMFSFK); test: Radioligand binding, αD97Cβγ mutant
[3] = molecular target: αY209Cβγ (α1Y209Cβ2γ2 GABAA receptor) (Rattus norvegicus, UniProt P18508+P62813, INS375LLRMFSFK/Y236C); test: Radioligand binding, αY209Cβγ mutant

Measured: specific binding of radioligand

CCOC(=O)c1ncn2c1CN(C)C(=O)c1cc(F)ccc1-2 [Ro15-1788, ethyl 8-fluoro-5,6-dihydro-5-methyl-6-oxo-4H-imidazo[1,5-a][1,4]benzodiazepine-3-carboxylate]
not measurable: all assays above

CN1C(=O)CN=C(c2ccccc2F)c2cc([N+](=O)[O-])ccc21 [flunitrazepam]
not measurable: all assays above
